US20100152434A1, “Protein Kinase-binding Nucleosides and Associated Methods” (priority 2007, published 2010)
Like-named read-outs stand apart in the source and are kept apart here.

How the values were obtained:
[1] = test system: A549/ATCC
[2] = test system: NCI-H23
[3] = test system: U251; assay: cells; details: Homo sapiens
[4] = test system: SNB-75
[5] = test system: SNB-19; assay: cells; details: Homo sapiens
[6] = test system: NCI-H322M; assay: cells; details: Homo sapiens, NCI-H322M
[7] = test system: HCT-116
[8] = test system: HOP-92; assay: cells; details: Homo sapiens
[9] = test system: MDA-MB-231/ATCC; assay: cells; details: Homo sapiens
[10] = test system: OVCAR-3
[11] = test system: COLO 205
[12] = test system: MDA-MB-435; details: MDA-MB-435
[13] = test system: HOP-62; assay: cells; details: Homo sapiens
[14] = test system: RPMI-8226
[15] = test system: SF-539; assay: cells; details: Homo sapiens
[16] = test system: LOX IMVI; assay: cells; details: Homo sapiens
[17] = test system: HCC-2998; details: HCC-2998
[18] = test system: UACC-257; assay: cells; details: Homo sapiens
[19] = test system: NCI-H322M; details: NCI-H322M
[20] = test system: A549/ATCC; assay: cells; details: Homo sapiens
[21] = test system: SF-295
[22] = test system: NCI-H226
[23] = test system: UO-31; assay: cells; details: Homo sapiens
[24] = test system: HT29
[25] = test system: OVCAR-3; assay: cells; details: Homo sapiens
[26] = test system: UO-31

CNC(=O)NC[C@H]1O[C@@H](n2cnc3c(NC(=O)Nc4ccccc4)ncnc32)[C@H](O[Si](C)(C)C(C)(C)C)[C@@H]1CC(=O)N(C)OC [Compound 13, 2′-O-(tert-Butyldimethylsilyl)-3′,5′-dideoxy-3′-[(N-methoxy-N-methylcarboxamido)methyl]-5′-[(N-methylcarbamoyl)amino]-N^6-(N-phenylcarbamoyl)adenosine]
TGI [1]: >1.00E−4 Molar | Percent Growth ([1]; Log10 Concentration −4.0): 27% | Percent Growth ([1]; Log10 Concentration −5.0): 49% | Percent Growth ([1]; Log10 Concentration −6.0): 97% | Percent Growth ([1]; Log10 Concentration −7.0): 100% | Percent Growth ([1]; Log10 Concentration −8.0): 97% | TGI [2]: >1.00E−4 Molar | Percent Growth ([2]; Log10 Concentration −4.0): 43% | Percent Growth ([2]; Log10 Concentration −5.0): 71% | Percent Growth ([2]; Log10 Concentration −6.0): 99% | Percent Growth ([2]; Log10 Concentration −7.0): 103% | Percent Growth ([2]; Log10 Concentration −8.0): 106% | GI50 ([3]; U-251): 5.66 µM | CC50 ([3]; U-251, read-out: LC50): > 100 µM | TGI [4]: >1.00E−4 Molar | Percent Growth ([4]; Log10 Concentration −4.0): 12% | Percent Growth ([4]; Log10 Concentration −5.0): 54% | Percent Growth ([4]; Log10 Concentration −6.0): 84% | Percent Growth ([4]; Log10 Concentration −7.0): 95% | Percent Growth ([4]; Log10 Concentration −8.0): 94% | GI50 ([5]; SNB-19): > 100 µM | CC50 ([5]; SNB-19, read-out: LC50): > 100 µM | GI50 [6]: > 100 µM | CC50 ([6]; read-out: LC50): > 100 µM | TGI [7]: >1.00E−4 Molar | Percent Growth ([7]; Log10 Concentration −4.0): 6% | Percent Growth ([7]; Log10 Concentration −5.0): 26% | Percent Growth ([7]; Log10 Concentration −6.0): 89% | Percent Growth ([7]; Log10 Concentration −7.0): 90% | Percent Growth ([7]; Log10 Concentration −8.0): 93% | GI50 ([8]; HOP-92): 2.71 µM | CC50 ([8]; HOP-92, read-out: LC50): > 100 µM | GI50 ([9]; MDA-MB-231): 12.3 µM | CC50 ([9]; MDA-MB-231, read-out: LC50): > 100 µM | TGI [10]: >1.00E−4 Molar | Percent Growth ([10]; Log10 Concentration −4.0): 6% | Percent Growth ([10]; Log10 Concentration −5.0): 41% | Percent Growth ([10]; Log10 Concentration −6.0): 100% | Percent Growth ([10]; Log10 Concentration −7.0): 107% | Percent Growth ([10]; Log10 Concentration −8.0): 95% | TGI [11]: >1.00E−4 Molar | Percent Growth ([11]; Log10 Concentration −4.0): 1% | Percent Growth ([11]; Log10 Concentration −5.0): 55% | Percent Growth ([11]; Log10 Concentration −6.0): 90% | Percent Growth ([11]; Log10 Concentration −7.0): 93% | Percent Growth ([11]; Log10 Concentration −8.0): 97% | TGI [12]: >1.00E−4 Molar | Percent Growth ([12]; Log10 Concentration −4.0): 36% | Percent Growth ([12]; Log10 Concentration −5.0): 51% | Percent Growth ([12]; Log10 Concentration −6.0): 98% | Percent Growth ([12]; Log10 Concentration −7.0): 97% | Percent Growth ([12]; Log10 Concentration −8.0): 100% | GI50 ([13]; HOP-62): 24.9 µM | CC50 ([13]; HOP-62, read-out: LC50): > 100 µM | TGI [14]: 5.40E−6 Molar | Percent Growth ([14]; Log10 Concentration −4.0): −16% | Percent Growth ([14]; Log10 Concentration −5.0): −25% | Percent Growth ([14]; Log10 Concentration −6.0): 69% | Percent Growth ([14]; Log10 Concentration −7.0): 91% | Percent Growth ([14]; Log10 Concentration −8.0): 80% | GI50 ([15]; SF-539): 22.3 µM | CC50 ([15]; SF-539, read-out: LC50): > 100 µM | GI50 [16]: 7.3 µM | CC50 ([16]; read-out: LC50): > 100 µM | TGI [17]: >1.00E−4 Molar | Percent Growth ([17]; Log10 Concentration −4.0): 33% | Percent Growth ([17]; Log10 Concentration −5.0): 66% | Percent Growth ([17]; Log10 Concentration −6.0): 100% | Percent Growth ([17]; Log10 Concentration −7.0): 97% | Percent Growth ([17]; Log10 Concentration −8.0): 102% | GI50 ([18]; UACC-257): 22.6 µM | CC50 ([18]; UACC-257, read-out: LC50): > 100 µM | TGI [19]: >1.00E−4 Molar | Percent Growth ([19]; Log10 Concentration −4.0): 73% | Percent Growth ([19]; Log10 Concentration −5.0): 90% | Percent Growth ([19]; Log10 Concentration −6.0): 102% | Percent Growth ([19]; Log10 Concentration −7.0): 98% | Percent Growth ([19]; Log10 Concentration −8.0): 97% | GI50 ([20]; A549): 9.35 µM | CC50 ([20]; A549, read-out: LC50): > 100 µM | TGI [21]: >1.00E−4 Molar | Percent Growth ([21]; Log10 Concentration −4.0): 20% | Percent Growth ([21]; Log10 Concentration −5.0): 48% | Percent Growth ([21]; Log10 Concentration −6.0): 98% | Percent Growth ([21]; Log10 Concentration −7.0): 93% | Percent Growth ([21]; Log10 Concentration −8.0): 93% | TGI [22]: >1.00E−4 Molar | Percent Growth ([22]; Log10 Concentration −4.0): 40% | Percent Growth ([22]; Log10 Concentration −5.0): 66% | Percent Growth ([22]; Log10 Concentration −6.0): 99% | Percent Growth ([22]; Log10 Concentration −7.0): 111% | Percent Growth ([22]; Log10 Concentration −8.0): 103% | GI50 ([23]; UO-31): 7.79 µM | CC50 ([23]; UO-31, read-out: LC50): > 100 µM | TGI [24]: >1.00E−4 Molar | Percent Growth ([24]; Log10 Concentration −4.0): 17% | Percent Growth ([24]; Log10 Concentration −5.0): 32% | Percent Growth ([24]; Log10 Concentration −6.0): 100% | Percent Growth ([24]; Log10 Concentration −7.0): 107% | Percent Growth ([24]; Log10 Concentration −8.0): 104% | GI50 ([25]; OVCAR-3): 7.11 µM | CC50 ([25]; OVCAR-3, read-out: LC50): > 100 µM | TGI [26]: >1.00E−4 Molar | Percent Growth ([26]; Log10 Concentration −4.0): 32% | Percent Growth ([26]; Log10 Concentration −5.0): 46% | Percent Growth ([26]; Log10 Concentration −6.0): 82% | Percent Growth ([26]; Log10 Concentration −7.0): 89% | Percent Growth ([26]; Log10 Concentration −8.0): 89%
